Key:
Assay type in all cases: in vivo
[1] = test system: barnyardgrass (Echinochloa crus-galli); test: Test G Pre-Emergence Protocol; details: Echinochloa crus-galli, pre-emergence, 312 h, evaluated after 13 days; for pest or weed control at 15.625 g/ha: 15.625 g ai/ha, read-out: Barnyard grass damage rating (100=total damage to plant; 0=no damage to plant); for pest or weed control at 62.5 g/ha: 62.5 g ai/ha, 100=total damage to plant, 0=no damage to plant, read-out: plant damage rating, Barnyardgrass; for pest or weed control at 250 g/ha: 250 g ai/ha, read-out: Barnyardgrass damage rating (100=total damage to plant; 0=no damage to plant)
Experimental: (§1) Seeds of corn (Zea mays), giant foxtail (Setaria faberi), barnyardgrass (Echinochloa crus-galli), ivy-leaved morning glory (Ipomoea hederacea), redroot pigweed (Amaranthus retroflexus) and velvetleaf (Abutilon theophrasti) were sown in standard soil in pots. After cultivation for one day under controlled conditions in a glasshouse (at 24/16° C., day/night; 14 hours light; 65% humidity), the plants were sprayed with an aqueous spray solution derived from the formulation of the technical active ingredient in acetone/water (50:50) solution containing 0.5% Tween 20 (polyoxyethylene sorbitan monolaurate, CAS RN 9005-64-5) to give a final dose of 15.625, 62.5 or 250 g/ha of test compound.
(§2) The test plants were then grown on under controlled conditions in a glasshouse (at 24/16° C., day/night; 14 hours light; 65% humidity) and watered twice daily. After 13 days the test was evaluated (100=total damage to plant; 0=no damage to plant). A dash (-) means no test result.

corn (Zea mays) [2] = test: Test G Pre-Emergence Protocol; details: Zea mays, pre-emergence, 312 h, evaluated after 13 days; for plant injury at 15.625 g/ha: 15.625 g ai/ha; for plant injury at 15.625 g/ha / plant injury at 250 g/ha: read-out: Corn damage rating (100=total damage to plant; 0=no damage to plant); for plant injury at 62.5 g/ha: 62.5 g ai/ha, 100=total damage to plant, 0=no damage to plant, read-out: plant damage rating, Corn; for plant injury at 250 g/ha: 250 g ai/ha
Experimental: as §1, §2

[3] = test system: barnyardgrass (Echinochloa crus-galli); test: Test G Post-Emergence Protocol; details: Echinochloa crus-galli, post-emergence, 312 h; for pest or weed control at 15.625 g/ha: 15.625 g ai/ha, evaluated after 13 days (100=total damage to plant; 0=no damage to plant), read-out: Barnyardgrass damage rating; for pest or weed control at 62.5 g/ha: 62.5 g ai/ha, read-out: Barnyardgrass damage rating (100=total damage to plant; 0=no damage to plant); for pest or weed control at 62.5 g/ha / pest or weed control at 250 g/ha: evaluated after 13 days; for pest or weed control at 250 g/ha: 250 g ai/ha, read-out: damage to plant, Barnyardgrass (100=total damage to plant; 0=no damage to plant)
Experimental: as §1, with “8 days” for “one day”
as §2

corn (Zea mays) [4] = test: Test G Post-Emergence Protocol; details: Zea mays, post-emergence, 312 h; for plant injury at 15.625 g/ha: 15.625 g ai/ha, evaluated after 13 days (100=total damage to plant; 0=no damage to plant), read-out: Corn damage rating; for plant injury at 62.5 g/ha: 62.5 g ai/ha, read-out: Corn damage rating (100=total damage to plant; 0=no damage to plant); for plant injury at 62.5 g/ha / plant injury at 250 g/ha: evaluated after 13 days; for plant injury at 250 g/ha: 250 g ai/ha, read-out: damage to plant, Corn (100=total damage to plant; 0=no damage to plant)
Experimental: as §1, with “8 days” for “one day”
as §2

[5] = test system: giant foxtail (Setaria faberi); test: Test G Post-Emergence Protocol; details: Setaria faberi, post-emergence, 312 h; for pest or weed control at 15.625 g/ha: 15.625 g ai/ha, evaluated after 13 days (100=total damage to plant; 0=no damage to plant), read-out: Foxtail, Giant damage rating; for pest or weed control at 62.5 g/ha: 62.5 g ai/ha, read-out: Foxtail, Giant damage rating (100=total damage to plant; 0=no damage to plant); for pest or weed control at 62.5 g/ha / pest or weed control at 250 g/ha: evaluated after 13 days; for pest or weed control at 250 g/ha: 250 g ai/ha, read-out: damage to plant, Foxtail, Giant (100=total damage to plant; 0=no damage to plant)
Experimental: as §1, with “8 days” for “one day”
as §2

[6] = test system: ivy-leaved morning glory (Ipomoea hederacea); test: Test G Post-Emergence Protocol; details: Ipomoea, post-emergence, 312 h; for pest or weed control at 15.625 g/ha: 15.625 g ai/ha, evaluated after 13 days (100=total damage to plant; 0=no damage to plant), read-out: Morningglory, Ivy-leaved damage rating; for pest or weed control at 62.5 g/ha: 62.5 g ai/ha, read-out: Morningglory, Ivy-leaved damage rating (100=total damage to plant; 0=no damage to plant); for pest or weed control at 62.5 g/ha / pest or weed control at 250 g/ha: evaluated after 13 days; for pest or weed control at 250 g/ha: 250 g ai/ha, read-out: damage to plant, Morningglory, Ivy-leaved (100=total damage to plant; 0=no damage to plant)
Experimental: as §1, with “8 days” for “one day”
as §2

[7] = test system: redroot pigweed (Amaranthus retroflexus); test: Test G Post-Emergence Protocol; details: Amaranthus retroflexus, post-emergence, 312 h; for pest or weed control at 15.625 g/ha: 15.625 g ai/ha, evaluated after 13 days (100=total damage to plant; 0=no damage to plant), read-out: Pigweed, Redroot damage rating; for pest or weed control at 62.5 g/ha: 62.5 g ai/ha, read-out: Pigweed, Redroot damage rating (100=total damage to plant; 0=no damage to plant); for pest or weed control at 62.5 g/ha / pest or weed control at 250 g/ha: evaluated after 13 days; for pest or weed control at 250 g/ha: 250 g ai/ha, read-out: damage to plant, Pigweed, Redroot (100=total damage to plant; 0=no damage to plant)
Experimental: as §1, with “8 days” for “one day”
as §2

[8] = test system: velvetleaf (Abutilon theophrasti); test: Test G Post-Emergence Protocol; details: Abutilon theophrasti, post-emergence, 312 h; for pest or weed control at 15.625 g/ha: 15.625 g ai/ha, evaluated after 13 days (100=total damage to plant; 0=no damage to plant), read-out: Velvetleaf damage rating; for pest or weed control at 62.5 g/ha: 62.5 g ai/ha, read-out: Velvetleaf damage rating (100=total damage to plant; 0=no damage to plant); for pest or weed control at 62.5 g/ha / pest or weed control at 250 g/ha: evaluated after 13 days; for pest or weed control at 250 g/ha: 250 g ai/ha, read-out: damage to plant, Velvetleaf (100=total damage to plant; 0=no damage to plant)
Experimental: as §1, with “8 days” for “one day”
as §2

[9] = test system: bearded sprangletop (Leptochloa fascicularis); test: Test F flooded paddy test; set-up: key: 0 = no effect, 100 = complete control; details: Flood
Description: (§3) Plant species in the flooded paddy test consisted of one stand of 9 or 10 water seeded rice seedlings (Rice, W. S. Jap, Oryza sativa cv. ‘Japonica—M202’ or Rice, W. S. Ind, ‘Indica’), and two stands of 3 or 4 transplanted rice seedlings (Oryza sativa cv. ‘Japonica—M202’), Monochoria (Monochoria vaginalis), sedge, umbrella (small-flower umbrella sedge, Cyperus difformis), hardstem bulrush (Scirpus juncoides), redstem (purple redstem, Ammannia coccinea), rice flatsedge (Cyperus iria), bearded sprangletop (Leptochloa fascicularis), barnyardgrass (Echinochloa crus-galli), waterplantain (common waterplantain, Alisma plantago-aquatica), and late watergrass (Echinochloa oryzicola) grown to the 2 to 2.5 leaf stage for testing. Potted plants were grown in a greenhouse with day/night temperature settings of 30/27° C., and supplemental balanced lighting was provided to maintain a 16-hour photoperiod. At time of treatment, test pots were flooded to 3 cm above the soil surface, treated by application of test compounds directly to the paddy water, and then maintained at that water depth for the duration of the test. Effects of treatments on rice and weeds were visually evaluated by comparison to untreated controls after 21 d. Plant response ratings, summarized in Table F, are based on a scale of 0 to 100 where 0 is no effect and 100 is complete control. A dash (-) response means no test result.

[10] = test system: rice flatsedge (Cyperus iria); test: Test F flooded paddy test; set-up: key: 0 = no effect, 100 = complete control; details: Flood
Description: as §3

[11] = test system: sedge, umbrella (small-flower umbrella sedge, Cyperus difformis); test: Test F flooded paddy test; set-up: key: 0 = no effect, 100 = complete control; details: Flood
Description: as §3

[12] = test system: transplanted rice seedlings (Oryza sativa cv. ‘Japonica—M202’); test: Test F flooded paddy test; set-up: key: 0 = no effect, 100 = complete control; details: Flood
Description: as §3

Row | SMILES | pest or weed control at 15.625 g/ha [1] [%] | pest or weed control at 62.5 g/ha [1] [%] | pest or weed control at 250 g/ha [1] [%] | plant injury at 15.625 g/ha (corn (Zea mays) [2]) [%] | plant injury at 62.5 g/ha (corn (Zea mays) [2]) [%] | plant injury at 250 g/ha (corn (Zea mays) [2]) [%] | pest or weed control at 15.625 g/ha [3] [%] | pest or weed control at 62.5 g/ha [3] [%] | pest or weed control at 250 g/ha [3] [%] | plant injury at 15.625 g/ha (corn (Zea mays) [4]) [%] | plant injury at 62.5 g/ha (corn (Zea mays) [4]) [%] | plant injury at 250 g/ha (corn (Zea mays) [4]) [%] | pest or weed control at 15.625 g/ha [5] [%] | pest or weed control at 62.5 g/ha [5] [%] | pest or weed control at 250 g/ha [5] [%] | pest or weed control at 15.625 g/ha [6] [%] | pest or weed control at 62.5 g/ha [6] [%] | pest or weed control at 250 g/ha [6] [%] | pest or weed control at 15.625 g/ha [7] [%] | pest or weed control at 62.5 g/ha [7] [%] | also measured
1 | CN1C[C@H](c2ccc(C(F)(F)F)cc2)[C@@H](C(=O)Nc2cccnc2F)C1=O [Compound 1396] | 80 | 90 | 90 | 70 | 80 | 80 | 80 | 80 | 80 | 70 | 80 | 70 | 80 | 80 | 80 | 40 | 60 | 60 | 70 | 70 | pest or weed control at 250 g/ha [7]: 80%; pest or weed control at 15.625 g/ha [8]: 40%; pest or weed control at 62.5 g/ha [8]: 30%; pest or weed control at 250 g/ha [8]: 60%
2 | CN1C[C@H](c2ccc(Cl)cc2)[C@@H](C(=O)Nc2cccc(F)n2)C1=O [Compound 1399] | 0 | 90 | 90 | 0 | 10 | 60 | 40 | 70 | 80 | 0 | 0 | 30 | 60 | 80 | 80 | 10 | 30 | 70 | 0 | 20 | pest or weed control at 250 g/ha [7]: 60%; pest or weed control at 15.625 g/ha [8]: 0%; pest or weed control at 62.5 g/ha [8]: 40%; pest or weed control at 250 g/ha [8]: 40%
3 | CN1CC(c2cccc(OC(F)F)c2)C(C(=O)Nc2ccc(F)cc2F)C1=O (centres unmarked) [Compound 617] | – | – | – | – | – | – | – | – | – | – | – | – | – | – | – | – | – | – | – | – | Plant response rating: Sprangletop, Brdd. ([9]; 32 g ai/ha): 0; Plant response rating: Sprangletop, Brdd. ([9]; 64 g ai/ha): 80; Plant response rating: Sprangletop, Brdd. ([9]; 125 g ai/ha): 85; Plant response rating: Sprangletop, Brdd. ([9]; 250 g ai/ha): 90; Plant response rating: Flatsedge, Rice ([10]; 32 g ai/ha): 0; Plant response rating: Flatsedge, Rice ([10]; 64 g ai/ha): 0; Plant response rating: Flatsedge, Rice ([10]; 125 g ai/ha): 0; Plant response rating: Flatsedge, Rice ([10]; 250 g ai/ha): 0; Plant response rating: Sedge, Umbrella ([11]; 32 g ai/ha): 0; Plant response rating: Sedge, Umbrella ([11]; 64 g ai/ha): 0; Plant response rating: Sedge, Umbrella ([11]; 125 g ai/ha): 0; Plant response rating: Sedge, Umbrella ([11]; 250 g ai/ha): 0; Plant response rating: Rice, Transplanted ([12]; 32 g ai/ha): 0; Plant response rating: Rice, Transplanted ([12]; 64 g ai/ha): 0; Plant response rating: Rice, Transplanted ([12]; 125 g ai/ha): 0; Plant response rating: Rice, Transplanted ([12]; 250 g ai/ha): 0
4 | Cc1ccc(C2CN(C)C(=O)C2C(=O)Nc2ccccc2F)cc1F (centres unmarked) [Compound 465] | – | – | – | – | – | – | – | – | – | – | – | – | – | – | – | – | – | – | – | – | Plant response rating: Sprangletop, Brdd. ([9]; 32 g ai/ha): 85; Plant response rating: Sprangletop, Brdd. ([9]; 64 g ai/ha): 85; Plant response rating: Sprangletop, Brdd. ([9]; 125 g ai/ha): 95; Plant response rating: Sprangletop, Brdd. ([9]; 250 g ai/ha): 95; Plant response rating: Flatsedge, Rice ([10]; 32 g ai/ha): 0; Plant response rating: Flatsedge, Rice ([10]; 64 g ai/ha): 0; Plant response rating: Flatsedge, Rice ([10]; 125 g ai/ha): 0; Plant response rating: Flatsedge, Rice ([10]; 250 g ai/ha): 0; Plant response rating: Sedge, Umbrella ([11]; 32 g ai/ha): 0; Plant response rating: Sedge, Umbrella ([11]; 64 g ai/ha): 0; Plant response rating: Sedge, Umbrella ([11]; 125 g ai/ha): 0; Plant response rating: Sedge, Umbrella ([11]; 250 g ai/ha): 0; Plant response rating: Rice, Transplanted ([12]; 32 g ai/ha): 0; Plant response rating: Rice, Transplanted ([12]; 64 g ai/ha): 0; Plant response rating: Rice, Transplanted ([12]; 125 g ai/ha): 0; Plant response rating: Rice, Transplanted ([12]; 250 g ai/ha): 15
